Experimental data published in patent US7094909B2, “HIV protease inhibitors, compositions containing the same, their pharmaceutical uses and materials for their synthesis” (priority 2001, dated 2006).
Where two headings read alike, the source gives them in different places.

What was measured:
[1] = target: T1, HIV-1 protease (Q7S mutant form) (Human immunodeficiency virus type 1 group M subtype B, UniProt P04585, Q495S); assay: HIV-1 Protease RET assay; type: biochemical; details: Ave. Ki (nM), RET assay, Q7S enzyme, Morrison tight binding fit
T1 construct: made in house
In short: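 Ki values fitted with the Morrison tight-binding equation from steady-state RET cleavage (ex 340, em 490 nm) of 5 μM RE(EDANS)SQNYPIVQK(DABCYL)R. Buffer pH 4.8 acetate, 1M NaCl, 5 mM DTT, 1 mg/ml BSA, 10% DMSO; 2 nM Q7S mutant dimer, 37 °C, 12 min.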

[2] = test system: HIV-1 (HIV-1 RF, HIV-1 NL4-3) in CEM-SS / MT-2 cells; assay: Cytopathic effect (CPE) inhibition assay (XTT/MTT dye reduction); type: cell-based
In short: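 Readout is XTT reduction (A450, 4 h) after six days of culturing virus-infected (moi 0.025–0.819) or mock-infected CEM-SS/MT-2 cells, 2×10^4 per well, with half-log compound series. Antiviral EC50 and cytotoxic CC50 are relative to uninfected compound-free cells. Therapeutic index is CC50 divided by EC50.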

[3] = test system: 461, 84V, 90M virus; assay: Phenotypic susceptibility assay at Virologic, Inc.; type: cell-based, HIV-1; details: Human immunodeficiency virus 1, read-out: EC50 or IC50 (mM), values with asterisk (IC50)
Procedure: Compounds were tested in phenotypic susceptibility assays at Virologic, Inc., (See Petropoulos C. J., Parkin N. T., Limoli K. L., Lie Y. S., Wrin T., Huang W., Tian H., Smith D., Winslow G. A., Capon D J, Whitcomb J M. 2000, “A novel phenotypic drug susceptibility assay for human immunodeficiency virus type 1,” Antimicrob Agents Chemother 44(4):920–928) or using the assay described here. MT-2 cells were infected with either HIV-1 NL4-3 or HIV-1 NL4-3([…]) and incubated in the presence of serial 0.5 log dilutions of test compounds. Three days later, culture supernatants were collected and virus production, as determined by p24 ELISA, was assayed. Percent inhibition was calculated as p24 concentration in compound-treated samples as compared to infected, compound-free controls. Inhibition of viral replication is determined by measuring reduction in HIV p24 present in the culture supernatant, using a Beckman-Coulter p24HIV-1 Ag EIA kit and following the supplied protocol. Absorbance is read on a MRX microplate reader (Dynex Technologies). The EC50 was calculated as the concentration of compound that effected a decrease in the p24 production by infected, compound-treated cells to 50% of that produced by infected, compound-free cells.

[4] = test system: HIV-1 NL4-3 or HIV-1 NL4-3(I84V/L90M); assay: Susceptibility assay, p24 ELISA in infected MT-2 cells; type: cell-based; details: Human immunodeficiency virus 1, NL43, MT2, read-out: EC50 or IC50 (mM), values without asterisk (EC50)
In short: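 MT-2 cells infected with HIV-1 NL4-3 or the I84V/L90M mutant were incubated with 0.5 log serial compound dilutions for three days. Supernatant p24 was quantified by ELISA. EC50 is the concentration reducing p24 to 50% of infected, compound-free controls.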

[5] = Human immunodeficiency virus 1, NL43, read-out: Ave CPE EC50
[6] = Human immunodeficiency virus 1, NL43, read-out: Ave CPE EC50 (mM)

SMILES	Ki [1]	EC50 [2, 5]	IC50 [3]	EC50 [2, 6]	EC50 [4]
Cc1ccccc1CNC(=O)[C@H]1N(C(=O)[C@@H](O)[C@H](Cc2ccccc2)NC(=O)O[C@H]2CCOC2)CSC1(C)C [Example B1, {1-Benzyl-3-[5,5-dimethyl-4-(2-methyl-benzylcarbamoyl)-thiazoldin-3-yl]-2-hydroxy-3-oxo-propyl}-carbamic acid tetrahydropfuran-3-yl-ester]	0.27 nM	49 nM	236 nM		
Cc1ccccc1CNC(=O)[C@H]1N(C(=O)[C@@H](O)[C@H](Cc2ccccc2)NC(=O)COc2c(C)cccc2C)CSC1(C)C [Example B7, (R)-3-{(2S,3S)-3-[2-(2,6-Dimethylphenoxy)-ethanoylamino]-2-hydroxy-4-phenyl-butanoyl}-5,5-dimethylthiazolidine-4-carboxylic acid 2-methyl-benzylamide]	< 0.1 nM	265 nM	333 nM		
Cc1cnccc1CNC(=O)[C@H]1N(C(=O)[C@@H](O)[C@H](Cc2ccccc2)NC(=O)c2cccc(O)c2C)CSC1(C)C [Example A10, 3-[2-Hydroxy-3-(3-hydroxy-2-methyl-benzoylamino)-4-phenyl-butyryl]-5,5-dimethyl-thiazolidine-4-carboxylic acid (3-methyl-pyridin4-ylmethyl)-amide]	< 0.1 nM	104 nM	118 nM		
Cc1ccccc1CNC(=O)[C@H]1N(C(=O)[C@@H](O)[C@H](Cc2ccccc2)NC(=O)c2cccc3c2CCN3)CSC1(C)C [Example B6, 2,3-Dihydro-1H-indole-4-carboxylic acid {(1S,2S)-1-benzyl-3-[(R)-5,5-dimethyl-4-(2-methyl-benzylcarbamoyl)-thiazolidin-3-yl]-2-hydroxy-3-oxo-propyl}-amide]	0.31 nM	95 nM	405 nM		
C=CCNC(=O)[C@H]1N(C(=O)[C@@H](O)[C@H](Cc2ccccc2)NC(=O)c2cccc3c2CCN3)CSC1(C)C [Example B21, 2,3-Dihydro-1H-indole-4-carboxylic acid [(1S,2S)-3-((R)-4-allylcarbamoyl-5,5-dimethyl-thiazolidin-3-yl)-1-benzyl-2-hydroxy-3-oxo-propyl]-amide]	0.91 nM	109 nM	547 nM		
Cc1c(O)cccc1C(=O)N[C@@H](Cc1ccccc1)[C@H](O)C(=O)N1CSC(C)(C)[C@H]1C(=O)NCc1ccco1 [Example A15, (R)-3-((2S,3S)-2-Hydroxy-3-{[1-(3-hydroxy-2-methyl-phenyl)-methanoyl]-amino}-4-phenyl-butanoyl)-5,5-dimethyl-thiazolidine-4-carboxylic acid (furan-2-ylmethyl)-amide]	< 0.1 nM	55 nM	57 nM		
Cc1ccccc1CNC(=O)[C@@H]1CC(F)(F)CN1C(=O)[C@@H](O)[C@H](Cc1ccccc1)NC(=O)c1cccc(O)c1C [Example C1, (S)-4,4-Difluoro-1-[(2S,3S)-2-hydroxy-3-(3-hydroxy-2-methyl-benzoylamino)-4-phenyl-butyryl]-pyrrolidine-2-carboxylic acid 2-methyl-benzylamide]	0.38 nM			627 nM	427 nM
Cc1c(O)cccc1C(=O)N[C@@H](Cc1ccccc1)[C@H](O)C(=O)N1CSC(C)(C)[C@H]1C(=O)NCC1=CCCC1 [Example A39, (R)-3-((2S,3S)-2-Hydroxy-3-{[1-(3-hydroxy-2-methyl-phenyl)-methanoyl]-amino}-4-phenyl-butanoyl)-5,5-dimethyl-thiazolidine-4-carboxylic acid (cyclopent-1-enylmethyl)-amide]	< 0.1 nM	123 nM			213 nM
Cc1c(O)cccc1C(=O)N[C@@H](Cc1ccccc1)[C@H](O)C(=O)N1CSC(C)(C)[C@H]1C(=O)NCc1nccs1 [Example A41, (R)-3-((2S,3S)-2-Hydroxy-3-{[1-(3-hydroxy-2-methyl-phenyl)-methanoyl]-amino}-4-phenyl-butanoyl)-5,5-dimethyl-thiazolidine-4-carboxylic acid (thiazol-2-ylmethyl)-amide]	0.17 nM	145 nM			242 nM
Cc1ccccc1CNC(=O)[C@H]1N(C(=O)[C@@H](O)[C@H](Cc2ccccc2)NC(=O)c2cccc(O)c2C)CC(F)(F)C1(C)C [Example C15, (S)-4,4-Difluoro-1-[(2S,3S)-2-hydroxy-3-(3-hydroxy-2-methyl-benzoylamino)-4-phenyl-butyryl]-3,3-dimethyl-pyrrolidine-2-carboxylic acid 2-methyl-benzylamide]	< 0.1 nM	25 nM			57 nM
Cc1c(F)cccc1CNC(=O)[C@@H]1CC(F)(F)CN1C(=O)[C@@H](O)[C@H](Cc1ccccc1)NC(=O)c1cccc(O)c1C [Example C5, (S)-4,4-Difluoro-1-((2S,3S)-2-hydroxy-3-{[1-(3-hydroxy-2-methyl-phenyl)-methanoyl]-amino}-4phenyl-butanoyl)-pyrrolidine-2-carboxylic acid 3-fluoro-2-methyl-benzylamide]	0.6 nM	669 nM			1610 nM
Cc1c(O)cccc1C(=O)N[C@@H](Cc1ccccc1)[C@H](O)C(=O)N1CSC(C)(C)[C@H]1C(=O)N[C@H]1CCc2ncccc21 [Example A51, 3-[2-Hydroxy-3-(3-hydroxy-2-methyl-benzoylamino)-4-phenyl-butyryl]-5,5-dimethyl-thiazolidine-4-carboxylic acid (6,7-dihydro-5H-[1]pyrindin-5-yl)-amide]	< 0.1 nM	159 nM			50 nM
C=CCCC(=O)[C@H]1N(C(=O)[C@@H](O)[C@H](Cc2ccccc2)NC(=O)c2cccc(O)c2C)CSC1(C)C [Example D1, N-[(1S,2S)-1-Benzyl-3-((R)-5,5-dimethyl-4-pent-4-enoyl-thiazolidin-3-yl)-2-hydroxy-3-oxo-propyl]-3-hydroxy-2-methyl-benzamide]	< 0.1 nM			52 nM	601 nM
Cc1c(O)cccc1C(=O)N[C@@H](Cc1ccccc1)[C@H](O)C(=O)N1CSC(C)(C)[C@H]1C(=O)N[C@H]1CCCc2occc21 (stereo in doubt) [Example A48, 3-[2-Hydroxy-3-(3-hydroxy-2-methyl-benzoylamino)-4-phenyl-butyryl]-5,5-dimethyl-thiazolidine-4-carboxylic acid (4,5,6,7-tetrahydro-benzofuran-4-yl)-amide]	< 0.1 nM	37 nM			92 nM
C/C=C(\C)CNC(=O)[C@@H]1CC(F)(F)CN1C(=O)[C@@H](O)[C@H](Cc1ccccc1)NC(=O)c1cccc(O)c1C [Example C8, (S)-4,4-Difluoro-1-((2S,3S)-2-hydroxy-3-{[1-(3-hydroxy-2-methyl-phenyl)-methanoyl]-amino}-4-phenyl-butanoyl)-pyrrolidine-2-carboxylic acid ((E)-2-methyl-but-2-enyl)-amide]	1.5 nM			152 nM	1420 nM
Cc1c(O)cccc1C(=O)N[C@@H](Cc1ccccc1)[C@H](O)C(=O)N1CSC2(CCCC2)C1C(=O)N[C@@H]1C=CCCC1 (stereo in doubt) [Example C35, (S)-3-((2S,3S)-2-Hydroxy-3-{[1-(3-hydroxy-2-methyl-phenyl)-methanoyl]-amino}-4-phenyl-butanoyl)-1-thia-3-aza-spiro[4.4]nonane-4-carboxylic acid (S)-cyclohex-2-enylamide]	< 0.1 nM	3 nM			289 nM
Cc1c(O)cccc1C(=O)N[C@@H](Cc1ccccc1)[C@H](O)C(=O)N1CSC(C)(C)[C@H]1C(=O)N[C@H]1CCCc2ncccc21 [Example A42, 3-[2-Hydroxy-3-(3-hydroxy-2-methyl-benzoylamino)-4-phenyl-butyryl]-5,5-dimethyl-thiazolidine-4-carboxylic acid (5,6,7,8-tetrahydro-quinolin-5-yl)-amide]	< 0.1 nM	65 nM			98 nM
